Assay results: patent publication US20260184687A1, “DIHYDROINDENE DERIVATIVES AS MALT1 INHIBITORS” (C4X Discovery Limited, priority 2022, published 2026)
pIC50: −log10 of the molar value.

Target: T1, FL hMALT1 enzyme (Homo sapiens, UniProt Q9UDY8)
T1 sequence (Q9UDY8 1-824): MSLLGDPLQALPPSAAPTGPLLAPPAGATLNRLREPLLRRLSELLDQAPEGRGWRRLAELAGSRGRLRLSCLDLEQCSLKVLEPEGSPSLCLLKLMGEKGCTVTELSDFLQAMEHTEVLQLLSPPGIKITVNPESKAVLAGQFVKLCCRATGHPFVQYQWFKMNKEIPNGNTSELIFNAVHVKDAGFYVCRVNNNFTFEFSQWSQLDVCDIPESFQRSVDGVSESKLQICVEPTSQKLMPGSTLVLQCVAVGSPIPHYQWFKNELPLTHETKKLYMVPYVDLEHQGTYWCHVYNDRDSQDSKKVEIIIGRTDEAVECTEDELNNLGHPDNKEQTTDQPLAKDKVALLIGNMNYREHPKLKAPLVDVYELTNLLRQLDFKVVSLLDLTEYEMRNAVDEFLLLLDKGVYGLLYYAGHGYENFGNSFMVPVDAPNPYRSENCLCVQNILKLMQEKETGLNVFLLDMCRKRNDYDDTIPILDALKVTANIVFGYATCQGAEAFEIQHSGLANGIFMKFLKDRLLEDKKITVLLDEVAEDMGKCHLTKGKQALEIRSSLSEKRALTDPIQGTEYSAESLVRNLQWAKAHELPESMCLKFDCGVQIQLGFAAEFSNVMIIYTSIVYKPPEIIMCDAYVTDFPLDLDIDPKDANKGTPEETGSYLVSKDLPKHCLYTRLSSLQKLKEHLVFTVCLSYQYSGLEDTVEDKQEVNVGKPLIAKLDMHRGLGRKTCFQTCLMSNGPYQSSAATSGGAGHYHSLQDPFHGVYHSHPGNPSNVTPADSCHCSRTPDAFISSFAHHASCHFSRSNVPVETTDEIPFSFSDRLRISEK
Test: biochemical
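Further: Cell-free protease assay: enzyme preincubated with compound 30 min at room temperature, then cleavage of fluorogenic Ac-LVSR-AMC substrate (100 µM) tracked by fluorescence (ex 360/em 460 nm).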
Description: MALT1 protease activity was assessed in vitro by measuring the cleavage of a fluorogenic tetrapeptide substrate.
For a higher sensitivity assay, commercially available FL hMALT1 enzyme (Abcam, 1-10 nM) was incubated with substrate (Ac-LVSR-AMC, 100 μM) in reaction buffer comprising 50 mM HEPES (pH7.0), 25 mM KCl, 0.1% (v/v) CHAPS, 1 mM TCEP and 0.7 M sodium citrate.
Test compounds dissolved in DMSO were dispensed into assay plates (384-well, black, shallow ProxiPlates). 7 μl enzyme solution was added and incubated at room temperature for 30 minutes to allow compound binding to occur. 2 μl substrate solution was then added and the fluorescence (excitation 360 nm, emission 460 nm) read every 15 minutes using a suitable plate reader. Final assay DMSO concentration was 1%. […] IC50 values were calculated using GraphPad Prism using a 4-parameter non-linear regression curve fit.

| Structure (SMILES) | pIC50 |
| --- | --- |
| CN(C(=O)C1CN2CCC1CC2)[C@@H](c1ccc(NC2Cc3ccccc3C2(C)C)nc1)C(F)(F)F (single isomer, unassigned) [Example 120] | 6.11 |
| CN(C(=O)C1CN2CCC1CC2)[C@@H](c1ccc(NC2Cc3ccccc3C2(C)C)nc1)C(F)(F)F (single isomer, unassigned) [Example 121] | 6.29 |
| CN(C(=O)C1CN2CCC1CC2)[C@@H](c1ccc(NC2Cc3ccccc3C2(C)C)nc1)C(F)(F)F (single isomer, unassigned) [Example 122] | 5.94 |
| CN(C(=O)C1CN2CCC1CC2)[C@@H](c1ccc(NC2Cc3ccccc3C2(C)C)nc1)C(F)(F)F (single isomer, unassigned) [Example 123] | 6.06 |
| CN(C(=O)C1CCCNC1)[C@@H](c1ccc(NC2Cc3ccccc3C2(C)C)cn1)C(F)(F)F (single isomer, unassigned) [Example 127] | 6.52 |
| CN1CCCC(C(=O)N(C)[C@@H](c2ccc(NC3Cc4ccccc4C3(C)C)cn2)C(F)(F)F)C1 (single isomer, unassigned) [Example 128] | 6.40 |
| CN1CCCC(C(=O)N(C)[C@@H](c2ccc(NC3Cc4ccccc4C3(C)C)cn2)C(F)(F)F)C1 (single isomer, unassigned) [Example 131] | 6.59 |
| CN(C(=O)C1CNC(=O)CO1)[C@@H](c1ccc(NC2Cc3ccccc3C2(C)C)cn1)C(F)(F)F (single isomer, unassigned) [Example 135] | 6.35 |
| CN(C(=O)C1CN2CCC1CC2)[C@@H](c1ccc(NC2Cc3ccccc3C2(C)C)cn1)C(F)(F)F (single isomer, unassigned) [Example 138] | 6.11 |
| CN(C(=O)C1CN2CCC1CC2)[C@@H](c1ccc(NC2Cc3ccccc3C2(C)C)cn1)C(F)(F)F (single isomer, unassigned) [Example 139] | 6.43 |
| CN(C(=O)N1CCS(=O)(=O)CC1)[C@@H](c1ccc(NC2Cc3ccccc3C2(C)C)cn1)C(F)(F)F (single isomer, unassigned) [Example 143] | 6.17 |
| CN1CCC(C(=O)N(C)[C@@H](c2ccc(NC3Cc4ccccc4C3(C)C)nc2)C(F)(F)F)CC1 (single isomer, unassigned) [Example 145] | 6.64 |
| CN(C(=O)C1CCNCC1)[C@@H](c1ccc(NC2Cc3ccccc3C2(C)C)cn1)C(F)(F)F (single isomer, unassigned) [Example 147] | 6.59 |
| CN(C(=O)C1CCNCC1)[C@@H](c1ccc(NC2Cc3ccccc3C2(C)C)nc1)C(F)(F)F (single isomer, unassigned) [Example 148] | 6.54 |
| CN(C(=O)C1CCNCC1)[C@@H](c1ccc(NC2Cc3ccccc3C2(C)C)nc1)C(F)(F)F (single isomer, unassigned) [Example 149] | 6.62 |
| CN(C(=O)C1CC2(CCN2)C1)[C@@H](c1ccc(NC2Cc3ccccc3C2(C)C)cn1)C(F)(F)F (single isomer, unassigned) [Example 154] | 6.82 |
| CN(C(=O)C1CC2(CCN2)C1)[C@@H](c1ccc(NC2Cc3ccccc3C2(C)C)cn1)C(F)(F)F (single isomer, unassigned) [Example 155] | 6.74 |
| CN(C(=O)[C@H]1C[C@]2(CCN2C)C1)[C@@H](c1ccc(NC2Cc3ccccc3C2(C)C)cn1)C(F)(F)F (single isomer, unassigned) [Example 158] | 6.36 |
| CN(C(=O)C1COCC(=O)N1)[C@@H](c1ccc(NC2Cc3ccccc3C2(C)C)cn1)C(F)(F)F (single isomer, unassigned) [Example 161] | 6.51 |
| CN(C(=O)C1COCC(=O)N1)[C@@H](c1ccc(NC2Cc3ccccc3C2(C)C)cn1)C(F)(F)F (single isomer, unassigned) [Example 162] | 6.96 |
| CN(C(=O)C1COCC(=O)N1)[C@@H](c1ccc(NC2Cc3ccccc3C2(C)C)cn1)C(F)(F)F (single isomer, unassigned) [Example 163] | 6.72 |
| COc1cccc2c1CC(Nc1ccc([C@H](N(C)C(=O)C3CCS(=O)(=O)CC3)C(F)(F)F)nc1)C2 (single isomer, unassigned) [Example 177] | 5.18 |
| COc1cccc2c1CC(Nc1ccc([C@H](N(C)C(=O)C3CCS(=O)(=O)CC3)C(F)(F)F)nc1)C2 (single isomer, unassigned) [Example 178] | 6.59 |
| CN(C(=O)C1CCS(=O)(=O)CC1)[C@@H](c1ccc(NC2Cc3cccc(C(F)(F)F)c3C2)cn1)C(F)(F)F (single isomer, unassigned) [Example 190] | 5.48 |

| Structure (SMILES) | pIC50 |
| --- | --- |
| CCc1cccc2c1CC(Nc1ccc([C@H](N(C)C(=O)C3CCS(=O)(=O)CC3)C(F)(F)F)nc1)C2 (single isomer, unassigned) [Example 197] | 5.59 |
| CN(C(=O)C1CCS(=O)(=O)CC1)[C@@H](c1ccc(N[C@@H]2Cc3ccc(Cl)cc3C2)cn1)C(F)(F)F (single isomer, unassigned) [Example 200] | 5.96 |
| CN1CC(=O)NCC1C(=O)N(C)[C@@H](c1ccc(N[C@H]2Cc3ccccc3C2(C)C)cn1)C(F)(F)F (single isomer, unassigned) [Example 201] | 6.96 |
| CN1CC(=O)NCC1C(=O)N(C)[C@@H](c1ccc(N[C@H]2Cc3ccccc3C2(C)C)cn1)C(F)(F)F (single isomer, unassigned) [Example 202] | 6.80 |
| CN(C(=O)[C@H]1C[C@@]2(COC(=O)N2)C1)[C@@H](c1ccc(NC2Cc3ccccc3C2(C)C)cn1)C(F)(F)F (single isomer, unassigned) [Example 207] | 6.92 |
| CN(C(=O)C1CN(S(C)(=O)=O)C1)[C@@H](c1ccc(NC2Cc3ccccc3C2(C)C)cn1)C(F)(F)F (single isomer, unassigned) [Example 210] | 6.70 |
| CN(C(=O)CN1CC(=O)NC1=O)[C@@H](c1ccc(NC2Cc3ccccc3C2(C)C)cn1)C(F)(F)F (single isomer, unassigned) [Example 212] | 6.89 |
| CN(C(=O)CN1CC(=O)NC1=O)[C@@H](c1ccc(NC2Cc3ccccc3C2(C)C)cn1)C(F)(F)F (single isomer, unassigned) [Example 213] | 6.30 |
| CN(C(=O)C1C2CS(=O)(=O)CC21)[C@@H](c1ccc(NC2Cc3ccccc3C2(C)C)cn1)C(F)(F)F (single isomer, unassigned) [Example 214] | 6.49 |
| CN(C(=O)C1C2CS(=O)(=O)CC21)[C@@H](c1ccc(NC2Cc3ccccc3C2(C)C)cn1)C(F)(F)F (single isomer, unassigned) [Example 217] | 6.77 |
| CN(C(=O)C1CC2(CCC(=O)N2)C1)[C@@H](c1ccc(NC2Cc3ccccc3C2(C)C)cn1)C(F)(F)F (single isomer, unassigned) [Example 229] | 6.85 |
| CN(C(=O)C1CC2(CCC(=O)N2)C1)[C@@H](c1ccc(NC2Cc3ccccc3C2(C)C)cn1)C(F)(F)F (single isomer, unassigned) [Example 231] | 6.96 |
| CC(=O)N1CCC12CC(C(=O)N(C)[C@@H](c1ccc(NC3Cc4ccccc4C3(C)C)cn1)C(F)(F)F)C2 (single isomer, unassigned) [Example 236] | 6.68 |
| CNC(=O)N1CCC12CC(C(=O)N(C)[C@@H](c1ccc(NC3Cc4ccccc4C3(C)C)cn1)C(F)(F)F)C2 (single isomer, unassigned) [Example 238] | 6.33 |
| CNC(=O)N1CCC12CC(C(=O)N(C)[C@@H](c1ccc(NC3Cc4ccccc4C3(C)C)cn1)C(F)(F)F)C2 (single isomer, unassigned) [Example 239] | 6.82 |
| COCCN1CCC12CC(C(=O)N(C)[C@@H](c1ccc(NC3Cc4ccccc4C3(C)C)cn1)C(F)(F)F)C2 (single isomer, unassigned) [Example 242] | 6.70 |
| CN(C(=O)CN1CCNC1=O)[C@@H](c1ccc(NC2Cc3ccccc3C2(C)C)cn1)C(F)(F)F (single isomer, unassigned) [Example 245] | 6.89 |
| CN(C(=O)CN1CCNC1=O)[C@@H](c1ccc(NC2Cc3ccccc3C2(C)C)cn1)C(F)(F)F (single isomer, unassigned) [Example 246] | 6.48 |
| CN(C(=O)C1CC2(CCN2CCO)C1)[C@@H](c1ccc(NC2Cc3ccccc3C2(C)C)cn1)C(F)(F)F (single isomer, unassigned) [Example 248] | 6.85 |
| CN(C(=O)C1CCS(=O)(=O)CC1)[C@@H](c1ccc(NC2Cc3ccc(C(F)(F)F)cc3C2)cn1)C(F)(F)F (single isomer, unassigned) [Example 255] | 6.96 |
| CN(C(=O)C1CCS(=O)(=O)CC1)[C@@H](c1ccc(NC2Cc3ccc(C(F)(F)F)cc3C2)cn1)C(F)(F)F (single isomer, unassigned) [Example 256] | 5.96 |
| CN(C(=O)C1CCS(=O)(=O)CC1)[C@@H](c1ccc(NC2Cc3cccc(C#N)c3C2)cn1)C(F)(F)F (single isomer, unassigned) [Example 257] | 5.70 |
| CN(C(=O)C1CCS(=O)(=O)CC1)[C@@H](c1ccc(NC2Cc3ccc(F)cc3C2)cn1)C(F)(F)F (single isomer, unassigned) [Example 258] | 5.35 |
